The record followed here is publication PMC8286840, “Identifying SARS-CoV-2 antiviral compounds by screening for small molecule inhibitors of Nsp3 papain-like protease” (Biochemical Journal, 2021).

The target in experiment [1] is T1, SARS-CoV-2 PLpro (nsp3 1564–1878) (Severe acute respiratory syndrome coronavirus 2, UniProt P0DTD1). Nature of the experiment: biochemical. The note with it: read-out: % of control remaining. Also on record: FRET-quenched peptide (Pro3) cleavage by PLpro, 10 min pre-incubation, slope over 20 min, normalised to no-compound control.
The target in experiment [2] is T1, SARS-CoV-2 PLpro (nsp3 1564–1878). The experiment can be described thus: biochemical. Also noted: FRET-quenched peptide (Pro3) cleavage by PLpro, 10 min pre-incubation, slope over 20 min, normalised to no-compound control. Particulars: read-out: % of control remaining. The source holds these as a separate data set.

Counter-ions that a name gives are not always drawn. Like-named read-outs stand apart in the source and are kept apart here.

Consider `S=C=Nc1cccc(C2(N3CCCCC3)CCCCC2)c1` [Metaphit methanesulfonate], for which, in experiment [1] (Well no.=991, high concentration screen), the remaining activity at 3.75 µM was found to be 98.9%. The remaining activity at 1.25 µM in experiment [2] (Well no.=991, low concentration screen) turned out to be 98.8%.
On to `CCN1CCC[C@H]1CNC(=O)c1c(O)c(Cl)cc(Cl)c1OC` [S(+)-Raclopride L-tartrate], for which the remaining activity at 3.75 µM in experiment [1] (Well no.=1354, high concentration screen) was 103%. The remaining activity at 1.25 µM in experiment [2] (Well no.=1354, low concentration screen) turned out to be 104%.
With `Nc1nc2c(cnn2CCc2ccccc2)c2nc(-c3ccco3)nn12` [SCH 58261], the remaining activity at 3.75 µM is 99.3% in experiment [1] (Well no.=7907, high concentration screen) and 97.1% in experiment [1] (Well no.=8309, high concentration screen). The remaining activity at 1.25 µM in experiment [2] (Well no.=7907, low concentration screen) was determined as 95.3%; in experiment [2] (Well no.=8309, low concentration screen), 98.9%.
Turning to `Cn1cc(-c2[nH]c3cc(NC(=O)[C@H](N)C4CCCCC4)cc4c3c2C=NNC4=O)cn1` [PF-477736], in experiment [1] (Well no.=4836, high concentration screen), the remaining activity at 3.75 µM amounted to 101%. In addition, the remaining activity at 1.25 µM in experiment [2] (Well no.=4836, low concentration screen) is 99.5%.
In the case of `COc1cc2nc(N3CCN(C(=O)C4=CC5C=CC4CC5)CC3)nc(N)c2cc1OC` (stereo not shown) [Prazobind], the remaining activity at 3.75 µM in experiment [1] (Well no.=1311, high concentration screen) was 105%. In addition, in experiment [2] (Well no.=1311, low concentration screen), the remaining activity at 1.25 µM is 104%.
Take `COc1cc2nc(N3CCN(C(=O)C4CCCO4)CC3)nc(N)c2cc1OC` (stereo not shown) [Terazosin]: the remaining activity at 3.75 µM in experiment [1] (Well no.=2301, high concentration screen) was found to be 89.8%. In addition, in experiment [2] (Well no.=2301, low concentration screen), the remaining activity at 1.25 µM came to 90.8%.
Consider `Cc1c(-c2cnccn2)ssc1=S` [Oltipraz], for which the remaining activity at 3.75 µM in experiment [1] (Well no.=2049, high concentration screen) turned out to be 112%. For the same compound, the remaining activity at 1.25 µM in experiment [2] (Well no.=2049, low concentration screen) turned out to be 109%.
Take `CCCCCCCCCCCC1=C(O)C(=O)C=C(O)C1=O` [Embelin]: the remaining activity at 3.75 µM in experiment [1] (Well no.=3273, high concentration screen) is 107%; in experiment [1] (Well no.=6494, high concentration screen), 88.6%. Moreover, the remaining activity at 1.25 µM in experiment [2] (Well no.=3273, low concentration screen) is 105%; in experiment [2] (Well no.=6494, low concentration screen), 95.2%.
In the case of `O=c1c(O)c(-c2ccc(O)cc2O)oc2cc(O)cc(O)c12` [Morin hydrate], in experiment [1] (Well no.=5680, high concentration screen), the remaining activity at 3.75 µM was determined as 99.5%. The remaining activity at 1.25 µM in experiment [2] (Well no.=5680, low concentration screen) worked out at 99.9%.
As to `C[C@H](N[C@@H](CCc1ccccc1)C(=O)O)C(=O)N1CCC[C@H]1C(=O)O` [Enalaprilat Dihydrate], the remaining activity at 3.75 µM in experiment [1] (Well no.=8094, high concentration screen) is 98.4%. The remaining activity at 1.25 µM in experiment [2] (Well no.=8094, low concentration screen) was found to be 96.7%.
With `C=CCN1CC[C@]23c4c5ccc(O)c4O[C@H]2/C(=N/NC(=O)c2ccccc2)CC[C@@]3(O)[C@H]1C5` [Naloxone benzoylhydrazone], the remaining activity at 3.75 µM in experiment [1] (Well no.=798, high concentration screen) amounted to 99.5%. Further, the remaining activity at 1.25 µM in experiment [2] (Well no.=798, low concentration screen) was 93.2%.
For `CCOC(=O)[C@H](CCc1ccccc1)N[C@H]1CCc2ccccc2N(CC(=O)O)C1=O` [Benazepril HCl], the remaining activity at 3.75 µM in experiment [1] (Well no.=5153, high concentration screen) is 101%. For the same compound, the remaining activity at 1.25 µM in experiment [2] (Well no.=5153, low concentration screen) turned out to be 97.7%.
With `COc1ccc(CCCn2ncc3c2nc(N)n2nc(-c4ccco4)nc32)cc1` [SCH-442416], the remaining activity at 3.75 µM in experiment [1] (Well no.=5870, high concentration screen) was found to be 97.4%. Also, in experiment [2] (Well no.=5870, low concentration screen), the remaining activity at 1.25 µM is 98.1%.
As to `O=c1cc(-c2ccccc2)oc2cc(O)c(O)cc12` [6,7-Dihydroxyflavone], the remaining activity at 3.75 µM in experiment [1] (Well no.=3441, high concentration screen) was 98.9%. In addition, the remaining activity at 1.25 µM in experiment [2] (Well no.=3441, low concentration screen) was found to be 100%.
On to `Clc1ccc(Cn2c(CN3CCCC3)nc3ccccc32)cc1` [Clemizole (hydrochloride)], for which the remaining activity at 3.75 µM in experiment [1] (Well no.=6558, high concentration screen) is 93.2%. Further, in experiment [2] (Well no.=6558, low concentration screen), the remaining activity at 1.25 µM stood at 93.9%.
For `O=C(O)CCCCCCC(=O)O` [Octanedioic acid], the remaining activity at 3.75 µM in experiment [1] (Well no.=6931, high concentration screen) turned out to be 103%. Also, the remaining activity at 1.25 µM in experiment [2] (Well no.=6931, low concentration screen) came to 108%.
As for `Cc1nccc2c1[nH]c1ccccc12` [Harmane], the remaining activity at 3.75 µM in experiment [1] (Well no.=612, high concentration screen) was 92%; in experiment [1] (Well no.=3593, high concentration screen), 102%. For the same compound, the remaining activity at 1.25 µM was 98.8% in experiment [2] (Well no.=612, low concentration screen) and 101% in experiment [2] (Well no.=3593, low concentration screen).
For the compound `Cc1ccc(C(=O)N(CCCN)[C@@H](c2oc3cc(Cl)ccc3c(=O)c2Cc2ccccc2)C(C)C)cc1` [SB 743921], the remaining activity at 3.75 µM in experiment [1] (Well no.=4812, high concentration screen) is 100%. The remaining activity at 1.25 µM in experiment [2] (Well no.=4812, low concentration screen) is 97.2%.
Turning to `N#CCCCSC(=N)N` [Kevetrin (hydrochloride)], in experiment [1] (Well no.=6250, high concentration screen), the remaining activity at 3.75 µM was 103%. In experiment [2] (Well no.=6250, low concentration screen), the remaining activity at 1.25 µM is 103%.
On to `c1ccc(-c2[nH]ncc2-c2ccnc3ccccc23)nc1` [LY 364947 - 4-[3-(2-Pyridinyl)-1H-pyrazol-4-yl]-quinoline], for which the remaining activity at 3.75 µM in experiment [1] (Well no.=2622, high concentration screen) was 101%. Moreover, the remaining activity at 1.25 µM in experiment [2] (Well no.=2622, low concentration screen) was found to be 96.3%.
Consider `CN(C(=O)CCCOc1ccc2[nH]c(=O)ccc2c1)C1CCCCC1` [Cilostamide], for which the remaining activity at 3.75 µM was 94.4% in experiment [1] (Well no.=234, high concentration screen) and 98.8% in experiment [1] (Well no.=2142, high concentration screen). Also, the remaining activity at 1.25 µM in experiment [2] (Well no.=234, low concentration screen) was 91.5%; in experiment [2] (Well no.=2142, low concentration screen), 95.9%.
For `COc1cc(OC)cc(-c2cc3cnc(N)nc3nc2NC(=O)NC(C)(C)C)c1` [PD-166866], the remaining activity at 3.75 µM in experiment [1] (Well no.=5912, high concentration screen) came out at 96.7%. Besides, the remaining activity at 1.25 µM in experiment [2] (Well no.=5912, low concentration screen) was determined as 96.4%.
In the case of `COc1c(N2CCNC(C)C2)c(F)cc2c(=O)c(C(=O)O)cn(C3CC3)c12` (stereo not shown) [Gatifloxacin], the remaining activity at 3.75 µM in experiment [1] (Well no.=2170, high concentration screen) was 104%. Moreover, in experiment [2] (Well no.=2170, low concentration screen), the remaining activity at 1.25 µM amounted to 103%.
Regarding `c1cnc(NCc2ccc(CNc3ncccn3)cc2)nc1` [MSX-122], the remaining activity at 3.75 µM in experiment [1] (Well no.=8075, high concentration screen) is 84.8%; in experiment [1] (Well no.=8397, high concentration screen), 90.4%. The remaining activity at 1.25 µM worked out at 97% in experiment [2] (Well no.=8075, low concentration screen) and 89.1% in experiment [2] (Well no.=8397, low concentration screen).
Regarding `C[C@]12CCC(=O)C=C1C=C[C@@H]1[C@@H]2CC[C@@]2(C)[C@H]1CC[C@@]21CCC(=O)O1` [Canrenone], the remaining activity at 3.75 µM in experiment [1] (Well no.=2181, high concentration screen) turned out to be 98%. In experiment [2] (Well no.=2181, low concentration screen), the remaining activity at 1.25 µM came out at 93.5%.
As for `Cn1cc(C(F)(F)F)nc1-c1ccc(OCC(O)CNCCOc2ccc(O)c(C(N)=O)c2)cc1` (stereo not shown) [CGP 20712A methanesulfonate], the remaining activity at 3.75 µM in experiment [1] (Well no.=585, high concentration screen) is 106%. Further, the remaining activity at 1.25 µM in experiment [2] (Well no.=585, low concentration screen) was found to be 105%.
`CCOc1cc(N)c(Cl)cc1C(=O)NCC1CN(Cc2ccc(F)cc2)CCO1` (stereo not shown) [Mosapride (citrate)]: in experiment [1] (Well no.=6657, high concentration screen), the remaining activity at 3.75 µM stood at 109%. Also, in experiment [2] (Well no.=6657, low concentration screen), the remaining activity at 1.25 µM was found to be 104%.
For the compound `CC(=O)OCC[N+](C)(C)C` [Acetylcholine], the remaining activity at 3.75 µM in experiment [1] (Well no.=1550, high concentration screen) is 98.7%. Besides, in experiment [2] (Well no.=1550, low concentration screen), the remaining activity at 1.25 µM was found to be 96.7%.
On to `O=C(N[C@H](CO)[C@H](O)c1ccc([N+](=O)[O-])cc1)C(Cl)Cl` [Chloramphenicol], for which the remaining activity at 3.75 µM in experiment [1] (Well no.=2223, high concentration screen) turned out to be 96.6%. Moreover, in experiment [2] (Well no.=2223, low concentration screen), the remaining activity at 1.25 µM is 96.9%.
Consider `COc1cc2c(c(OC)c1OC)-c1ccc(OC)c(=O)cc1[C@@H](NC=O)CC2` [N-Formyl-Deacetylcolchicine], for which, in experiment [1], the remaining activity at 3.75 µM came out at 103%. Moreover, the remaining activity at 1.25 µM in experiment [2] amounted to 102%.
